Data published in patent publication EP0295827A2, “Use of 24,25-dihydroxy-cholecalciferol in mending bone fractures” (priority 1987, dated 1988).

System: rabbits suffering fracture
Experiment: Fibula fracture model: strength test (bending test)
Format: in vivo, Japanese white house rabbits
Conditions: 100 µg/kg oral, average value ± standard deviation
Source text: The right fibulae of mature house rabbits (Japanese white house rabbits having a weight of about 3 kg) were broken at the central portions under anesthetic with a dental hand drill. Each of the house rabbits was kept in a separate cage and was allowed to take an ordinary solid food (CR-1, produced by Nippon Clare Corp.) and city water freely. 24R,25-(OH)₂-D₃ and 24S,25-(OH)₂-D₃ were dispersed in an aqueous 0.5% CMC solution and orally administered to the house rabbits through a rubber catheter. The experimental groups were as follows:
The respective medicines or aqueous 0.5% CMC solution was administered to these house rabbits for 3 weeks or 6 weeks after the bones had been broken. Thereafter, the house rabbits were killed and the fibulae were taken out for X-ray inspection and a strength test (bending test by DDV-VMF produced by Toyo Baldwin Co., Ltd.).

Structure (SMILES): C=C1CC[C@H](O)C/C1=C/C=C1\CCC[C@]2(C)[C@@H]([C@H](C)CC[C@H](O)C(C)(C)O)CC[C@@H]12 [24S,25-(OH)₂-D₃]
- Bending strength (3 weeks after): 15 N/mm
- Bending strength (6 weeks after): 81 ± 37 N/mm
